Measured values: article PMC7269481, “ZN148 Is a Modular Synthetic Metallo-β-Lactamase Inhibitor That Reverses Carbapenem Resistance in Gram-Negative Pathogens In Vivo” (Antimicrobial Agents and Chemotherapy, 2020)
Like-named read-outs stand apart in the source and are kept apart here.

Key:
[1] = biological target: T1, VIM-2 (Escherichia coli, UniProt Q5U7L7); test: Time-dependent inactivation kinetics of purified VIM-2 (nitrocefin); type: biochemical
T1 construct: made in house
Description: Protein expression and purification of NDM-1 and VIM-2 were performed as previously described ([36], [43], [57]). Stock solutions of purified NDM-1 and VIM-2 were prepared in 50 mM HEPES buffer (pH 7.5; Merck). Inhibition of NDM-1 and VIM-2 were determined for ZN148 and the analogues ZN222, ZN223, and ZN228 at different concentrations of inhibitor after preincubation times of 2, 8, 15, 25, and 32 min in 50 mM HEPES buffer (pH 7.5) supplemented with 1 μM ZnSO4 (Sigma-Aldrich) and bovine serum albumin (Sigma-Aldrich; final concentration, 2 μg/ml) at 25°C. Concentrations of 1 nM VIM-2 and 30 nM NDM-1 were used, and the reaction was initiated by the addition of 30 μM nitrocefin (Merck) for VIM-2 or 100 μM imipenem (Sigma-Aldrich) for NDM-1. The reaction was measured at 482 nm (VIM-2) or […] (NDM-1) in either standard 96-well plates (Thermo Fisher Scientific) for VIM-2 or UV-transparent 96-well plates (Corning, Kennebunk, ME) for NDM-1 at 25°C in a SpectraMax Plus plate reader (Molecular Devices). All of the enzyme and substrate concentrations indicated are the final concentrations in the assay. The enzyme activity as a percentage was calculated based on the initial velocity and compared to the control without inhibitor compound. All tests were performed at least in duplicates.
The observed rate constant (kobs) per inhibitor concentration was calculated from the slope of a semilog plot of the enzyme activity in percent versus preincubation time.
By fitting these values, the irreversible kinetic parameters maximum inactivation rate (kinact) and the inhibitor concentration that produces half-maximal rate of inactivation (KI) were obtained. Finally, the inhibitors were characterized by calculating kinact/KI. Where no saturation curve could be observed, KI and kinact were determined from the linear part of plot 1/kobs versus 1/[I].

[2] = test system: MBL-producing P. aeruginosa clinical strains; test: Carbapenem MIC, MBL-producing P. aeruginosa; type: cell-based; details: 50 μM ZN148; n = 52
Description: (§1) MICs of carbapenems alone and in combination with inhibitors were determined by broth microdilution according to the Clinical and Laboratory Standards Institute (CLSI) guidelines ([48]) using either premade plates (TREK Diagnostic Systems/Thermo Fisher Scientific, East Grinstead, United Kingdom) with meropenem or in-house-prepared plates with meropenem, imipenem, and doripenem. ZN148 and other inhibitors were tested at a fixed concentration of 50 μM. Cation-adjusted Mueller-Hinton medium (TREK Diagnostic Systems/Thermo Fisher Scientific; Becton Dickinson, Franklin Lakes, NJ) were used as growth medium. The plates were incubated for 20 h at 37°C. ZN148, ZN222, ZN223, ZN228, and TPA were initially tested in combination with meropenem using two indicator strains: NDM-1-producing K. pneumoniae ([49], [50]) and VIM-2-producing P. aeruginosa ([51]). The activity of ZN148 were subsequently tested against two extended strain collections: (i) in combination with meropenem against MBL-producing Enterobacterales (n = 62), MBL-producing P. aeruginosa (n = 9) and MBL- and class D carbapenemase-coproducing Enterobacterales (n = 5) from the strain collection at the Norwegian National Advisory Unit on Detection of Antimicrobial Resistance and (ii) in combination with meropenem, imipenem, and doripenem against globally collected MBL-producing E. coli (n = 87), K. pneumoniae (n = 85), P. aeruginosa (n = 52), and A. baumannii (n = 6), MBL- and class A/D carbapenemase-coproducing E. coli (n = 11), K. pneumoniae (n = 15) and A. baumannii (n = 7) at IHMA Europe, Sàrl, Switzerland. E. coli ATCC 25922 and P. aeruginosa ATCC 27853 were used as quality control strains. The MBL inhibitors were also tested for intrinsic antibacterial activity against the strains.

[3] = test system: female BALB/c mice; test: In vivo tolerance (maximum tolerated dose study); details: weekly i.p. doses 4 to 128 mg/kg
Description: In vivo tolerance of ZN148 was performed by Antineo (Lyon, France). Female BALB/c mice (4 weeks old, approximately 20 g; Charles River, L’Arbresle, France) were acclimatized 4 days in the animal facility before the initiation of experiments. Groups of six mice were either untreated or treated with 200 μl of ZN148 (0.4 to 12.8 g/liter) i.p. once a week. Doses were doubled each week (4 to 128 mg/kg) in the absence of any observed weight loss or modification in behavior. Individual weights were monitored 4 days a week. The relative weights were calculated as ratios between the weight of the day and the weight at the initiation of the experiment. Animals were also followed for macroscopic modifications in behavior. The protocol for experiments in mice was approved by the University of Lyon Animal Ethics Committee (Comité d’Ethique en Expérimentation Animale de l’Université Claude Bernard [Lyon, France], authorization number DR2015-09).

[4] = biological target: T2, NDM-1 (Klebsiella pneumoniae, UniProt C7C422); test: Zinc content determination by ICP-MS, NDM-1; type: biochemical; details: ICP-MS after preincubation
T2 construct: made in house
T2 sequence (C7C422 29-270, looked up): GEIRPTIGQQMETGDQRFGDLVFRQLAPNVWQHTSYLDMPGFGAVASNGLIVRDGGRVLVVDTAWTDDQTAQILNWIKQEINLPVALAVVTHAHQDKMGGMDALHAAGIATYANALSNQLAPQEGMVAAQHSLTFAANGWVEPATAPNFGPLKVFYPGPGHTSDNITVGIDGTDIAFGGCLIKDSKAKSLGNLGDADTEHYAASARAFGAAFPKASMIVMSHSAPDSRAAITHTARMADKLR

[5] = test system: NDM-1-producing K. pneumoniae K66-45; test: Serial passage on increasing meropenem; type: cell-based; details: for fold increase in meropenem MIC after serial passaging: compared to control culture / original MIC
Description: K. pneumoniae K66-45 was passaged in a 96-well microtiter plate with a consistent concentration of ZN148 and increasing concentrations of meropenem. To start the passaging, cation-adjusted Mueller-Hinton broth II medium (Sigma-Aldrich) containing 0.0625 mg/liter (0.5× MIC) and 50 or 100 μM ZN148 was inoculated with 1% of overnight culture, which was grown without selection. Six biological replicates were passaged in parallel, and from each of the six overnight cultures four wells were inoculated, resulting in 24 subcultures for each ZN148 concentration. After 24 h of incubation at 37°C and shaking at 180 rpm, the wells were visually checked for growth.

[6] = test system: class A carbapenemase (KPC)-producing E. cloacae; test: Carbapenem MIC, class A carbapenemase-producing E. cloacae; type: cell-based; details: carbapenem alone or with 50µM ZN148
Description: as §1

[7] = test system: M. morganii co-producing MBLs and class A/D serine carbapenemases; test: Meropenem MIC, M. morganii co-producing NDM-1 and OXA-48; type: cell-based; details: Morganella morganii; NDM-1 + OXA-48 strain; meropenem alone or with 50µM ZN148
Description: MICs of carbapenems alone and in combination with inhibitors were determined by broth microdilution according to the Clinical and Laboratory Standards Institute (CLSI) guidelines ([48]) using either premade plates (TREK Diagnostic Systems/Thermo Fisher Scientific, East Grinstead, United Kingdom) with meropenem or in-house-prepared plates with meropenem, imipenem, and doripenem. ZN148 and other inhibitors were tested at a fixed concentration of 50 μM. Cation-adjusted Mueller-Hinton medium (TREK Diagnostic Systems/Thermo Fisher Scientific; Becton Dickinson, Franklin Lakes, NJ) were used as growth medium. The plates were incubated for 20 h at 37°C. ZN148, ZN222, ZN223, ZN228, and TPA were initially tested in combination with meropenem using two indicator strains: NDM-1-producing K. pneumoniae ([49], [50]) and VIM-2-producing P. aeruginosa ([51]). […]

Structure (SMILES)	kinact [1] [s⁻¹]	kinact/KI [1] [M⁻¹ s⁻¹]	strains with restored clinical susceptibility, in combination with doripenem [2] [%]	strains with restored clinical susceptibility, in combination with imipenem [2] [%]	strains with restored clinical susceptibility, in combination with meropenem [2] [%]	clinical signs (hair loss or bristly hair, immobility, prostration) test vs control groups [3]	loss of weight compared to initial weight [3] [%]	zinc removed from enzyme [4] [molar equivalents]	maximum meropenem MIC reached by evolved cultures ([5]; 50 µM ZN148, 8 passages) [µg/mL]	maximum meropenem MIC reached by evolved cultures ([5]; 100 µM ZN148, 6 passages) [µg/mL]	fold increase in meropenem MIC after serial passaging ([5]; in the presence of 50 μM ZN148) [fold]	fold increase in meropenem MIC after serial passaging ([5]; in the presence of 100 μM ZN148) [fold]	MIC ([6]; Enterobacter cloacae, KPC-2 strains, one value per strain, read-out: MIC) [µg/mL]	MIC ([6]; Enterobacter cloacae, KPC-3 strain, read-out: MIC) [µg/mL]	MIC ([6]; KPC-2 strains, one value per strain, listed as MEM) [µg/mL]	MIC [7] [µg/mL]
CN(C[C@H](O)[C@@H](O)[C@H](O)[C@H](O)CO)C(=O)c1ccc(CN(Cc2ccccn2)Cc2ccccn2)nc1 [ZN148]	0.00262	110	15	25	17	no significant differences	< 10	~1.3	8	2	64	16				
C[C@@H](O)[C@H]1C(=O)N2C(C(=O)O)=C(S[C@@H]3CN[C@H](C(=O)N(C)C)C3)[C@H](C)[C@H]12 [meropenem]													16	2	32	8
